Assay results as given in PubChem BioAssay (NCI).
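Protocol summary: plate cells (96-well), add compound at 5 concentrations, incubate 48 h, interpolate endpoints linearly. Definition used: TGI = concentration required for complete inhibition of growth.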

Columns and labels:
Assay in all cases: DTP human tumour cell line panel, 48 h
[1] = tested on: HOP-62 NSCLC
[2] = tested on: MOLT-4 leukemia
[3] = tested on: NCI-H460 lung
[4] = tested on: A549 NSCLC
[5] = tested on: MCF7 breast
[6] = tested on: NCI-H522 lung
[7] = tested on: SK-OV-3 ovarian
[8] = tested on: MDA-N
[9] = tested on: OVCAR-8 ovarian
[10] = tested on: T-47D breast
[11] = tested on: RXF 393 renal
[12] = tested on: HCT-15 colon
[13] = tested on: NCI-H226 lung
[14] = tested on: SF-295 CNS
[15] = tested on: 786-0 renal
[16] = tested on: KM20L2 colon
[17] = tested on: K-562 leukemia
[18] = tested on: M19-MEL melanoma
[19] = tested on: SK-MEL-5 melanoma
[20] = tested on: SNB-75 CNS
[21] = tested on: TK-10 renal
[22] = tested on: DMS 114 small cell lung
[23] = tested on: DMS 273 small cell lung
[24] = tested on: DLD-1 colon
[25] = tested on: UO-31 renal
[26] = tested on: SW-620 colon
[27] = tested on: RXF-631 renal
[28] = tested on: KM12 colon
[29] = tested on: EKVX NSCLC
[30] = tested on: OVCAR-3 ovarian
[31] = tested on: MALME-3M melanoma
[32] = tested on: UACC-257 melanoma
[33] = tested on: M14 melanoma
[34] = tested on: SNB-78 CNS
[35] = tested on: ACHN renal
[36] = tested on: MDA-MB-231 breast
[37] = tested on: NCI-H23 lung
[38] = tested on: HS 578T breast
[39] = tested on: A498 renal
[40] = tested on: HL-60(TB) leukemia
[41] = tested on: CCRF-CEM leukemia
[42] = tested on: LXFL 529 NSCLC
[43] = tested on: SF-268 CNS
[44] = tested on: HOP-92 NSCLC
[45] = tested on: OVCAR-5 ovarian
[46] = tested on: CAKI-1 renal
[47] = tested on: HCT-116 colon
[48] = tested on: XF 498 CNS
[49] = tested on: HT29 colon
[50] = tested on: COLO 205 colon
[51] = tested on: BT-549 breast
[52] = tested on: RPMI-8226 leukemia
[53] = tested on: PC-3 prostate
[54] = tested on: U251 CNS
[55] = tested on: SNB-19 CNS
[56] = tested on: IGROV1 ovarian
[57] = tested on: HCC-2998 colon
[58] = tested on: SN12C renal
[59] = tested on: SR leukemia
[60] = tested on: UACC-62 melanoma
[61] = tested on: LOX IMVI melanoma
[62] = tested on: SF-539 CNS
[63] = tested on: MDA-MB-435
[64] = tested on: OVCAR-4 ovarian
[65] = tested on: DU-145 prostate
[66] = tested on: SK-MEL-2 melanoma
[67] = tested on: HOP-18 NSCLC
[68] = tested on: SK-MEL-28 melanoma

CCc1cccc(CC)c1NC(=O)C(C#N)C1=C(Cl)C(=O)c2ccccc2C1=O (stereo unspecified)
TGI [1]: 21.4 µM | TGI [2]: 20.3 µM | TGI [3]: 52 µM | TGI [4]: 40.9 µM | TGI [5]: 34.5 µM | TGI [6]: 23 µM | TGI [7]: 42.4 µM | TGI [8]: 30.3 µM | TGI [9]: 57.1 µM | TGI [10]: 18.1 µM | TGI [11]: 29.8 µM | TGI [12]: 42.9 µM | TGI [13]: 29.8 µM | TGI [14]: 29.9 µM | TGI [15]: 31 µM | TGI [16]: 43.8 µM | TGI [17]: 14.1 µM | TGI [18]: 47.2 µM | TGI [19]: 28.2 µM | TGI [20]: 17.4 µM | TGI [21]: 35.9 µM | TGI [22]: 65.4 µM | TGI [23]: 45.3 µM | TGI [24]: 45.2 µM | TGI [25]: 24.3 µM | TGI [26]: 31.2 µM | TGI [27]: > 56.8 µM | TGI [28]: 35.5 µM | TGI [29]: 36 µM | TGI [30]: 36.9 µM | TGI [31]: 21 µM | TGI [32]: 32.2 µM | TGI [33]: 35.1 µM | TGI [34]: 40.8 µM | TGI [35]: 30.5 µM | TGI [36]: 21.6 µM | TGI [37]: 24.3 µM | TGI [38]: 9.32 µM | TGI [39]: 36.5 µM | TGI [40]: 5.28 µM | TGI [41]: 15.6 µM | TGI [42]: 30.1 µM | TGI [43]: 36 µM | TGI [44]: 8.89 µM | TGI [45]: 34.5 µM | TGI [46]: 24.7 µM | TGI [47]: 34 µM | TGI [48]: 29.4 µM | TGI [49]: 39.7 µM | TGI [50]: 49.1 µM | TGI [51]: 24.8 µM | TGI [52]: 23.4 µM | TGI [53]: 25.9 µM | TGI [54]: 33.7 µM | TGI [55]: 44.4 µM | TGI [56]: 32 µM | TGI [57]: 31.2 µM | TGI [58]: 31.3 µM | TGI [59]: > 28.9 µM | TGI [60]: 31.7 µM | TGI [61]: 45.1 µM | TGI [62]: 25.6 µM | TGI [63]: 27.9 µM | TGI [64]: 31.6 µM | TGI [65]: 30.5 µM | TGI [66]: 34.7 µM | TGI [67]: 28.9 µM | TGI [68]: 41 µM

CCOc1ccc2nc(NC(=O)C(=O)C(C#N)CC(C)(C)C=O)sc2c1 (stereo unspecified)
TGI [1]: > 100 µM | TGI [2]: > 100 µM | TGI [3]: > 100 µM | TGI [4]: > 100 µM | TGI [6]: > 100 µM | TGI [7]: > 100 µM | TGI [9]: > 100 µM | TGI [11]: > 100 µM | TGI [12]: > 100 µM | TGI [13]: > 100 µM | TGI [14]: > 100 µM | TGI [15]: > 100 µM | TGI [16]: > 100 µM | TGI [17]: > 100 µM | TGI [18]: > 100 µM | TGI [19]: > 100 µM | TGI [20]: > 100 µM | TGI [21]: > 100 µM | TGI [22]: > 100 µM | TGI [23]: 51.5 µM | TGI [24]: > 100 µM | TGI [25]: > 100 µM | TGI [27]: > 100 µM | TGI [28]: > 100 µM | TGI [29]: > 100 µM | TGI [30]: > 100 µM | TGI [31]: > 100 µM | TGI [32]: > 100 µM | TGI [33]: > 100 µM | TGI [34]: > 100 µM | TGI [35]: > 100 µM | TGI [37]: > 100 µM | TGI [39]: > 100 µM | TGI [40]: > 100 µM | TGI [41]: 63.1 µM | TGI [42]: > 100 µM | TGI [43]: > 100 µM | TGI [44]: > 100 µM | TGI [45]: > 100 µM | TGI [46]: > 100 µM | TGI [47]: > 100 µM | TGI [48]: > 100 µM | TGI [49]: > 100 µM | TGI [50]: > 100 µM | TGI [52]: > 100 µM | TGI [54]: > 100 µM | TGI [55]: > 100 µM | TGI [56]: > 100 µM | TGI [57]: > 100 µM | TGI [58]: > 100 µM | TGI [59]: 46 µM | TGI [60]: > 100 µM | TGI [61]: > 100 µM | TGI [62]: > 100 µM | TGI [64]: > 100 µM | TGI [66]: > 100 µM | TGI [67]: > 100 µM | TGI [68]: > 100 µM
